The target in test [1] is T1, Recombinant human factor B (Homo sapiens (Human), UniProt P00751). The test can be described thus: biochemical.
Test [2] has as its target T1, Recombinant human factor B.

Results on 13 molecules are retold here after patent US9475806B2, “Complement factor B inhibitors and uses there of” (Novartis AG, priority 2013, dated 2016).

Like-named read-outs stand apart in the source and are kept apart here.

T1 sequence (P00751 26-764): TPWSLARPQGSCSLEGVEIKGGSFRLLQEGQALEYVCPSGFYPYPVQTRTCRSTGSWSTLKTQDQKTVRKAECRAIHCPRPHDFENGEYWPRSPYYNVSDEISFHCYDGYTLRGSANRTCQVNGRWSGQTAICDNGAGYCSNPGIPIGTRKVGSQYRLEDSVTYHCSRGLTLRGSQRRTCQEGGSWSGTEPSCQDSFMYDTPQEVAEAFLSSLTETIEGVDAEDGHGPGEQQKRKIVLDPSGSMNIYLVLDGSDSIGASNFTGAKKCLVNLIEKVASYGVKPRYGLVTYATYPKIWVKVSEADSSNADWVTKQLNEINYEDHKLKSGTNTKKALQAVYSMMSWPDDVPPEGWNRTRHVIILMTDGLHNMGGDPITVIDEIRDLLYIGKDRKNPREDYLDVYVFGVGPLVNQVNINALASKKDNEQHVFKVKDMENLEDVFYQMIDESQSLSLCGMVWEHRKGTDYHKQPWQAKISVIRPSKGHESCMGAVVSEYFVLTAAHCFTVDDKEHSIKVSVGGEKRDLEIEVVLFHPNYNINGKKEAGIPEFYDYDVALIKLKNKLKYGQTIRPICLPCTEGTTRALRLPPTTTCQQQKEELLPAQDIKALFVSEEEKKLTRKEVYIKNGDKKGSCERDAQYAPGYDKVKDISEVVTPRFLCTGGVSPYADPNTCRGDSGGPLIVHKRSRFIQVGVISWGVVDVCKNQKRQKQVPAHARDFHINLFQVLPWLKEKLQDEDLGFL

Regarding `CCc1cc(C)c2[nH]ccc2c1C(C)(NC)c1nc2cc(C#N)cnc2[nH]1` (racemic) [Example 15-D, (±)-2-(1-(5-Ethyl-7-methyl-1H-indol-4-yl)-1-(methylamino)ethyl)-3H-imidazo[4,5-b]pyridine-6-carbonitrile], the IC50 in test [1] turned out to be 540 nM.
The same measure, in the same setting: with `Cc1cc(C2CC2)c(C(O)c2nc3cc(C#N)cnc3[nH]2)c2cc[nH]c12` (racemic) [Example 16-G, (±)-2-((5-Cyclopropyl-7-methyl-1H-indol-4-yl)(hydroxy)methyl)-3H-imidazo[4,5-b]pyridine-6-carbonitrile] the figure was 460 nM; with `Cc1cc(C2CC2)c(C(C)(O)c2nc3cc(C#N)cnc3[nH]2)c2cc[nH]c12` (racemic) [Example 17-C, (±)-2-(1-(5-Cyclopropyl-7-methyl-1H-indol-4-yl)-1-hydroxyethyl)-3H-imidazo[4,5-b]pyridine-6-carbonitrile], 60 nM; with `Cc1cc(C2CC2)c(C(N)(c2nc3cc(C#N)cnc3[nH]2)C(F)(F)F)c2cc[nH]c12` (racemic) [Example 17-G, (±)-2-(1-Amino-1-(5-cyclopropyl-7-methyl-1H-indol-4-yl)-2,2,2-trifluoroethyl)-3H-imidazo[4,5-b]pyridine-6-carbonitrile], 90 nM.
Regarding `COc1cc(C)c2[nH]ccc2c1C(N)(c1nc2cc(C#N)cnc2[nH]1)C(F)(F)F` (stereo not drawn) [5-B b) (+)], the IC50 in test [2] is 290 nM.
Regarding `COc1cc(C)c2[nH]ccc2c1C(O)c1nc2ncc(C#N)cc2[nH]1` (stereo not drawn) [6-C b) (+)], the half-inhibitory concentration (IC50) in test [2] came out at 700 nM.
`COc1cc(C)c2[nH]ccc2c1C(C)(O)c1nc2cc(C#N)cnc2[nH]1` (stereo not drawn) [7-D b) (+)]: in test [2], the IC50 amounted to 50 nM.
For the molecule `COc1cc(C)c2[nH]ccc2c1C(C)(OC)c1nc2cc(C#N)cnc2[nH]1` (stereo not drawn) [8-B b) (+)], the IC50 in test [2] was 720 nM.
Same read-out and setting: with `CNC(c1nc2cc(C#N)cnc2[nH]1)(c1c(OC)cc(C)c2[nH]ccc12)C(F)(F)F` (stereo not drawn) [9-D b) (+)] the figure was 1520 nM.
`COc1cc(C)c2[nH]ccc2c1C(C)(N)c1nc2cc(C#N)cnc2[nH]1` (stereo not drawn) [10-B b) (+)]: the IC50 in test [2] amounted to 1380 nM.
With `CNC(C)(c1nc2cc(C#N)cnc2[nH]1)c1c(OC)cc(C)c2[nH]ccc12` (stereo not drawn) [11-B b) (+)], in test [2], the IC50 stood at 3140 nM.
With `CCc1cc(C)c2[nH]ccc2c1C(O)(c1nc2cc(C#N)cnc2[nH]1)C(F)(F)F` (stereo not drawn) [14-I b) (+)], the IC50 in test [2] was determined as 2350 nM.
On to `COc1cc(C)c2[nH]ccc2c1C(C)(C)c1nc2cc(C#N)cnc2[nH]1` [Example 12-D, 2-(2-(5-Methoxy-7-methyl-1H-indol-4-yl)propan-2-yl)-3H-imidazo[4,5-b]pyridine-6-carbonitrile], for which the concentration for half-maximal inhibition (IC50) in test [1] was found to be 40 nM.

One may read the IC50 as the concentration needed to halve the response being measured.
